Reference: patent US20260191962A1, “NOVEL CHLORIN E6 ANALOGUES” (RMW CHO Group Limited, priority 2022, published 2026)
Counter-ions that a name gives are not always drawn. Like-named read-outs stand apart in the source and are kept apart here.

Legend:
[1] = Stability of chlorin e6 analogue salts in aqueous solution (HPLC purity over time); assay type: physicochemical; details: 30° C.; for Stability: aqueous solution, overall rating in words
Experimental: Reaction solutions were prepared by dissolving 2-3 mg of the respective chlorin e6 analogue salt in 5 mL of distilled deionised water in a 50 mL test tube fitted with a lid. The solutions were stirred in the test tubes at 30° C. Air (oxygen) and ambient light so were not excluded. Sample HPLC analyses were performed at 0.5, 4 or 66 hours (unless indicated otherwise). The aim was to look for degradation over time.
• Mobile Phase: A=0.05% w/v phosphoric acid in distilled water; B=acetonitrile • Injection volume: 5 μL • HPLC run length: 35 minutes • Detection wavelength: 406 nm • Column temperature: 40° C.

[2] = test system: SKOV3 ovarian cancer cells; assay: Phototoxicity of chlorin e6 analogues in SKOV3 cells after 652 nm laser activation (AlamarBlue viability); assay type: cell-based, Human; details: for IC90: 24 h uptake, 652 nm laser 50 mW/cm^2 for 5 mins (15 J/cm^2), viability 24 h later; for Phototoxicity in vitro compared with compounds 1, 2 and 8: comparison in words
Experimental: Samples were stored at 4° C. protected from light.
All data are shown as mean±SD (where appropriate).
To test for phototoxicity, cells incubated with chlorin e6 analogues (0-10 μM in DMSO) had culture media replaced after 24 hours (as above) and were then exposed to a 652 nm laser (Invion) with laser density at 50 mW/cm^2 for 5 mins (total 15 J/cm^2). Following activation, cells were cultured for a further 24 hours. Media was then replaced with fresh media containing AlamarBlue, and % viable cells remaining assessed as above. Controls included cells treated with chlorin e6 analogues but not activated by laser light; cells without chlorin e6 analogue treatment but with laser light; and untreated controls. All measurements were made in quadruplicate.
To evaluate the therapeutic potential of chlorin e6 analogues, the therapeutic index (TI) was calculated. TI provides a quantitative measurement to describe relative drug safety, by comparing the drug concentration required for desirable effects versus the concentration resulting in undesirable off-target toxicity. TI was calculated using phototoxicity IC90 vs dark toxicity IC10.

[3] = test system: SKOV3 ovarian cancer cells; assay: Inherent cytotoxicity (dark toxicity) in SKOV3 cells (AlamarBlue viability); details: 24 h incubation, no light activation
Experimental: (§1) Photosensitizers (e.g. chlorin e6 analogue, chlorin e4 disodium (provided by Advanced Molecular Technologies, Scoresby) or Talaporfin sodium (purchased from Focus Bioscience cat #HY-16477-5MG)) were resuspended in 100% dimethylsulfoxide (DMSO) at a concentration of 5.5 mM. Samples were stored at 4° C. protected from light.
(§2) For in vitro experiments, photosensitizers (stock solution 5.5 mM in 100% DMSO) were diluted 1:100 in concentrated excipient solution (final 55 M photosensitizer in 10% w/v Kollidon-12, 42.4% w/v polysorbate 80, 0.6% w/v citric acid anhydrous, 40% w/v ethanol, 1.0% DMSO). Serial dilutions were prepared in cell culture media (Dulbecco's Modified Eagle Medium/Nutrient Mixture F-12 (DMEM/F-12)) supplemented with 10% v/v Fetal Bovine Serum, 100 U/mL penicillin, 100 μg/mL streptomycin and the same excipient solution at a constant 1:55 dilution.
(§3) Human ovarian cancer cell line SKOV3 (ATCC #HTB-77) was maintained in Dulbecco's Modified Eagle Medium/Nutrient Mixture F-12 (DMEM/F-12), supplemented with 10% v/v Fetal Bovine Serum, 100 U/mL penicillin and 100 g/mL streptomycin. Monolayer cultures were grown in a humidified incubator at 37° C. with 5% CO2. Once cells had reached ~80% confluence, spent media was replaced with media containing photosensitizer at the required concentration and cells were incubated for the desired period of time to allow photosensitizer uptake.
(§4) Spectral absorbance and viability measurements were normalized in the range 0-100%, with a minimum of 0 and a maximum value determined from the dataset. Dose response was determined using a sigmoidal four-point non-linear regression with variable slope, and IC10 or IC90 calculated for each compound. All data are shown as mean±SD (where appropriate).
(§5) SKOV3 cells were seeded in 96-well black wall plates (Greiner #655090) at a cell density of 5000 cells in 100 μl culture medium per well. On reaching 60% confluence, media was aspirated and replaced with fresh media containing the relevant chlorin e6 analogue from 0-100 μM in DMSO. Cells were incubated for a further 24 hours, allowing uptake of chlorin e6 analogues.
(§6) To test for inherent cytotoxicity (i.e. “dark toxicity”) of the chlorin e6 analogues, the culture media was replaced after 24 hours with fresh media containing 10% (v/v) AlamarBlue Cell Viability Reagent (ThermoFisher) and cells incubated at 37° C. for 6 hours. Untreated cells were used as a control. Fluorescence (Ex 555 nm/Em 596 nm) was measured using a Cytation 3 Cell Imaging Multi-Mode Reader (Biotek), and cytotoxicity assessed according to the % viable cells remaining. All measurements were made in quadruplicate.
(§7) The phototoxicity and inherent cytotoxicity (i.e. “dark toxicity”) of chlorin e6 analogues were assessed as previously using SKOV3 ovarian cancer cells.

[4] = test system: SKOV3 ovarian cancer cells; details: human, 24 h
Experimental: as §1, §2, §3, §4, §5, §6, §7

[5] = distilled deionised water, air and ambient light not excluded
[6] = Homo sapiens, SK-OV-3, light or radiation study
[7] = distilled deionised water, air and ambient light not excluded, Disodium Salt

Stability [1] | Purity by HPLC after 0.5 hours (%) [1, 5] [%] | Purity by HPLC after 4 hours (%) [1, 5] [%] | Purity by HPLC after 66 hours (%) [1, 5] [%] | SMILES | also measured
Poor | 88.56 | 84.33 | 40.27 | C=Cc1c(C)c2cc3nc(c(CC(=O)O)c4[nH]c(cc5nc(cc1[nH]2)C(C)=C5CC)c(C)c4C(=O)O)[C@@H](CCC(=O)O)[C@@H]3C [Photodithiazine, reference compound] | 
Good |  |  | 95.34 | C=Cc1c(C)c2cc3nc(c(CC(=O)OCC)c4[nH]c(cc5nc(cc1[nH]2)C(C)=C5CC)c(C)c4C(=O)O)[C@@H](CCC(=O)O)[C@@H]3C [Compound 16, Chlorin e6 15-ethyl Ester bis(N-methyl-D-glucamine) Salt] | 
Poor | 81.39 | 81.28 | 1.62 | C=Cc1c(C)c2cc3nc(c(CC(=O)O)c4[nH]c(cc5nc(cc1[nH]2)C(C)=C5CC)c(C)c4C(=O)OC)[C@@H](CCC(=O)O)[C@@H]3C [Compound 20, Chlorin e6 5-methyl Ester bis(N-methyl-D-glucamine) Salt] | 
Poor | 83.73 | 81.10 | 36.95 | C=Cc1c(C)c2cc3nc(c(CC(=O)O)c4[nH]c(cc5nc(cc1[nH]2)C(C)=C5CC)c(C)c4C(=O)OC)[C@@H](CCC(=O)O)[C@@H]3C [Compound 12, Chlorin e6 5-methyl Ester Monosodium Mono(N-methyl-D-glucamine) Salt] | 
Good | 94.15 | 93.94 |  | C=Cc1c(C)c2cc3nc(c(CC(=O)N(C)CCCC)c4[nH]c(cc5nc(cc1[nH]2)C(C)=C5CC)c(C)c4C(=O)O)[C@@H](CCC(=O)O)[C@@H]3C [Compound 11, Chlorin e6 N-methylbutylamine bis(N-methyl-D-glucamine) Salt] | Purity by HPLC (%) after 7 days ([1]; distilled deionised water, air and ambient light not excluded, after 7 days): 93.93 (after %
Poor |  |  |  | C=Cc1c(C)c2cc3nc(c(CC(=O)O)c4[nH]c(cc5nc(cc1[nH]2)C(C)=C5CC)c(C)c4C(=O)OC)[C@@H](CCC(=O)O)[C@@H]3C [Compound 13, Chlorin e6 5-methyl Ester Disodium Salt] | Purity by HPLC after 0.5 hours (%) [1, 7]: 85.46%; Purity by HPLC after 4 hours (%) [1, 7]: 81.54%; Purity by HPLC after 66 hours (%) [1, 7]: 41.60%

The next lines start with the molecule.

SMILES | Stability [1] | Purity by HPLC after 0.5 hours (%) [1, 5] [%] | Purity by HPLC after 4 hours (%) [1, 5] [%] | Purity by HPLC after 66 hours (%) [1, 5] [%] | also measured
C=Cc1c(C)c2cc3nc(c(C)c4[nH]c(cc5nc(cc1[nH]2)C(C)=C5CC)c(C)c4C(=O)O)[C@@H](CCC(=O)O)[C@@H]3C [Chlorin e4 disodium, reference compound] |  |  |  |  | IC90 [2]: 21.3 µM; Phototoxicity in vitro compared with compounds 1, 2 and 8 [2]: substantially lower phototoxicity; Dark toxicity μM (IC10) [3]: 40.23 µM
C=Cc1c(C)c2cc3nc(c(CC(=O)O)c4[nH]c(cc5nc(cc1[nH]2)C(C)=C5CC)c(C)c4C(=O)NCCCS[C@@H]1O[C@H](CO)[C@@H](O)[C@H](O)[C@H]1O)[C@@H](CCC(=O)NCCCS[C@@H]1O[C@H](CO)[C@@H](O)[C@H](O)[C@H]1O)[C@@H]3C [Compound 1, chlorin e6 bis β-D-1-thioglucose propylamide conjugate 1] |  |  |  |  | Dark toxicity μM (IC10) [4]: 168.10 µM; IC90 [2, 6]: 6.48 µM
C=Cc1c(C)c2cc3nc(c(CC(=O)N(C)CCC[P+](c4ccccc4)(c4ccccc4)c4ccccc4)c4[nH]c(cc5nc(cc1[nH]2)C(C)=C5CC)c(C)c4C(=O)OC)[C@@H](CCC(=O)OC)[C@@H]3C [Compound 8, Chlorin e6 N-(methylaminopropyl)triphenylphosphonium Bromide Dimethyl Ester] |  |  |  |  | Dark toxicity μM (IC10) [4]: 1.032 µM; IC90 [2, 6]: 0.00418 µM
C=Cc1c(C)c2cc3nc(c(CC(=O)NCCCS[C@@H]4O[C@H](CO)[C@@H](O)[C@H](O)[C@H]4O)c4[nH]c(cc5nc(cc1[nH]2)C(C)=C5CC)c(C)c4C(=O)NCCCS[C@@H]1O[C@H](CO)[C@@H](O)[C@H](O)[C@H]1O)[C@@H](CCC(=O)NCCCS[C@@H]1O[C@H](CO)[C@@H](O)[C@H](O)[C@H]1O)[C@@H]3C [Compound 2, chlorin e6 tris β-D-1-thioglucose propylamide conjugate 2] |  |  |  |  | Dark toxicity μM (IC10) [4]: 167.50 µM; IC90 [2, 6]: 7.89 µM
C=Cc1c(C)c2cc3nc(c(CC(=O)N[C@@H](CC(=O)O)C(=O)O)c4[nH]c(cc5nc(cc1[nH]2)C(C)=C5CC)c(C)c4C(=O)O)[C@@H](CCC(=O)O)[C@@H]3C [Talaporfin sodium, reference compound] |  |  |  |  | Phototoxicity in vitro compared with compounds 1, 2 and 8 [2]: substantially lower phototoxicity; Dark toxicity μM (IC10) [3]: 11.10 µM
C=Cc1c(C)c2cc3nc(c(CC(=O)OCC)c4[nH]c(cc5nc(cc1[nH]2)C(C)=C5CC)c(C)c4C(=O)O)[C@@H](CCC(=O)O)[C@@H]3C [Compound 17, Chlorin e6 15-ethyl Ester Disodium Salt] |  |  |  |  | Purity by HPLC after 66 hours (%) [1, 7]: 76.69%; Purity by HPLC (%) after 2 hours ([1]; distilled deionised water, air and ambient light not excluded, after 2 hours): 77.60 (after %
